Read-outs that look alike come from different tables or passages of the source.
Molecular target: T1, NgTet1 (Naegleria gruberi, UniProt D2W6T1)
T1 construct: His6-tagged full-length Naegleria gruberi NgTet1 (321 a. a.) protein with a thrombin cleavage site; made in house; host or cells: E. coli BL21(DE3)
T1 sequence (D2W6T1 1-321): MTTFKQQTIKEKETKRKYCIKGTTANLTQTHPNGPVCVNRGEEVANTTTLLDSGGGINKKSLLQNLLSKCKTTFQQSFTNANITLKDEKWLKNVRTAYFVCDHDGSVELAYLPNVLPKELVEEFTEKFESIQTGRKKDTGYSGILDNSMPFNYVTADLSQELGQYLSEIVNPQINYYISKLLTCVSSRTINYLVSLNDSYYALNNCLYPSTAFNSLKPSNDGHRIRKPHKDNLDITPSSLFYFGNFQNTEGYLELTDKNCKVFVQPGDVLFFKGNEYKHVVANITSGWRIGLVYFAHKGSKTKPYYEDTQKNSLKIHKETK
Format: biochemical
Procedure: Double-stranded 12 bp DNA oligomers were added at a final concentration of 20 µM. […]
Double-stranded DNA oligomers were added at a final concentration of 20 µM. […]
All ^1H NMR spectra were recorded at 25 °C using D2O as a reference for internal deuterium lock on a Bruker Avance III 700 MHz equipped with an inverse TCI cryoprobe in 3 or 5 mm diameter tubes with a total sample volume of 160 or 565 μL, respectively. The water signal was reduced using Perfect Echo excitation sculpting suppression. Chemical shifts are reported in ppm relative to D2O (δH = 4.70 ppm).
Spectrometer settings were determined using a control sample containing all reaction components excluding enzyme. TET enzyme was added to an identical sample, and the resulting assay mixture was transferred to an NMR tube before deposition into the instrument. […] Spectrum recordings were carried out consecutively without delay. Data were processed using automated routines on MestReNova v14.2.0; signals of interest were integrated with absolute intensity scaling. ^1H NMR time courses reported in figures are representative results from two or three independent replicates.

AT DNA: double-stranded self-complementary 5'-ACC ACA TGT GGT-3', CpG replaced by ApT (DNA ACCACATGTGGT; DNA, backbone and methylation of C not given here; self-complementary duplex)
V0 NgTet1 (20 µM DNA, 100 μM 2OG, 5 μM NgTet1): 0.82 µM/min | succinate (n = 1, time (min) 5HC DNA 5.9, AT DNA 5.81667, 5mC DNA 5.78333): 4.127 µM | succinate (n = 1, time (min) 5HC DNA 8.98333, AT DNA 8.9, 5mC DNA 8.86667): 6.717 µM | succinate (n = 1, time (min) 5HC DNA 12.0667, AT DNA 11.9833, 5mC DNA 11.95): 10.1801 µM | succinate (n = 1, time (min) 5HC DNA 15.1333, AT DNA 15.0667, 5mC DNA 15.0333): 12.0396 µM | succinate (n = 1, time (min) 5HC DNA 18.2167, AT DNA 18.1333, 5mC DNA 18.1167): 14.7705 µM | succinate (n = 1, time (min) 5HC DNA 21.3667, AT DNA 21.2333, 5mC DNA 21.2): 16.3534 µM | succinate (n = 1, time (min) 5HC DNA 24.45, AT DNA 24.3167, 5mC DNA 24.2833): 18.4118 µM | succinate (n = 1, time (min) 5HC DNA 27.5333, AT DNA 27.3833, 5mC DNA 27.3667): 20.2156 µM | succinate (n = 1, time (min) 5HC DNA 30.6, AT DNA 30.4667, 5mC DNA 30.45): 21.7474 µM | succinate (n = 1, time (min) 5HC DNA 33.6833, AT DNA 33.55, 5mC DNA 33.5333): 22.2243 µM | succinate (n = 1, time (min) 5HC DNA 36.7667, AT DNA 36.6333, 5mC DNA 36.6167): 23.7117 µM | succinate (n = 1, time (min) 5HC DNA 39.85, AT DNA 39.7167, 5mC DNA 39.7): 24.5115 µM | succinate (n = 1, time (min) 5HC DNA 42.9333, AT DNA 42.8, 5mC DNA 42.7833): 26.1396 µM | succinate (n = 1, time (min) 5HC DNA 46.0167, AT DNA 45.8833, 5mC DNA 45.8667): 27.6473 µM | succinate (n = 1, time (min) 5HC DNA 49.0833, AT DNA 48.9667, 5mC DNA 48.95): 28.232 µM | succinate (n = 1, time (min) 5HC DNA 52.1667, AT DNA 52.05, 5mC DNA 52.0333): 29.053 µM | succinate (n = 1, time (min) 5HC DNA 55.25, AT DNA 55.1167, 5mC DNA 55.1167): 29.9694 µM | succinate (n = 1, time (min) 5HC DNA 58.3333, AT DNA 58.2, 5mC DNA 58.2): 30.8156 µM | succinate (n = 1, time (min) 5HC DNA 61.4, AT DNA 61.2833, 5mC DNA 61.2833): 32.4581 µM | succinate (n = 1, time (min) 5HC DNA 64.4833, AT DNA 64.3833, 5mC DNA 64.35): 32.8043 µM | succinate (n = 2, time (min) 5HC DNA 5.81667, AT DNA 5.61667, 5mC DNA 6.08333): 3.542 µM | succinate (n = 2, time (min) 5HC DNA 8.88333, AT DNA 8.7, 5mC DNA 9.16667): 5.909 µM | succinate (n = 2, time (min) 5HC DNA 12.0333, AT DNA 11.7833, 5mC DNA 12.25): 8.271 µM | succinate (n = 2, time (min) 5HC DNA 15.1167, AT DNA 14.8667, 5mC DNA 15.3167): 11.2722 µM | succinate (n = 2, time (min) 5HC DNA 18.1833, AT DNA 17.9333, 5mC DNA 18.4): 12.8044 µM | succinate (n = 2, time (min) 5HC DNA 21.2667, AT DNA 21.0167, 5mC DNA 21.4833): 14.5697 µM | succinate (n = 2, time (min) 5HC DNA 24.35, AT DNA 24.1, 5mC DNA 24.5667): 16.6119 µM | succinate (n = 2, time (min) 5HC DNA 27.4333, AT DNA 27.1833, 5mC DNA 27.65): 17.8887 µM | succinate (n = 2, time (min) 5HC DNA 30.5167, AT DNA 30.2667, 5mC DNA 30.7333): 19.2454 µM | succinate (n = 2, time (min) 5HC DNA 33.6, AT DNA 33.35, 5mC DNA 33.8167): 20.9427 µM | succinate (n = 2, time (min) 5HC DNA 36.6833, AT DNA 36.4333, 5mC DNA 36.9): 21.6807 µM | succinate (n = 2, time (min) 5HC DNA 39.7667, AT DNA 39.5167, 5mC DNA 39.9833): 23.2699 µM | succinate (n = 2, time (min) 5HC DNA 42.8333, AT DNA 42.6, 5mC DNA 43.0667): 23.7997 µM | succinate (n = 2, time (min) 5HC DNA 45.9167, AT DNA 45.6833, 5mC DNA 46.15): 25.1342 µM | succinate (n = 2, time (min) 5HC DNA 49, AT DNA 48.7667, 5mC DNA 49.2333): 26.0623 µM | succinate (n = 2, time (min) 5HC DNA 52.0833, AT DNA 51.85, 5mC DNA 52.3167): 26.9664 µM | succinate (n = 2, time (min) 5HC DNA 55.1667, AT DNA 54.9333, 5mC DNA 55.4): 27.9222 µM | succinate (n = 2, time (min) 5HC DNA 58.25, AT DNA 58.0167, 5mC DNA 58.4833): 28.2598 µM | succinate (n = 2, time (min) 5HC DNA 61.3333, AT DNA 61.1, 5mC DNA 61.5667): 29.5623 µM | succinate (n = 2, time (min) 5HC DNA 64.4167, AT DNA 64.1667, 5mC DNA 64.65): 30.2392 µM | Relative V0 NgTet1 (relative to reactions without DNA): 2.3
